# In US10131652B2, “Pyrimidinyloxy benzene derivatives as herbicides” (E. I. DU PONT DE NEMOURS AND COMPANY, priority 2014, dated 2018):
# Read-outs that look alike come from different tables or passages of the source.
# Key:
# Format in all cases: in vivo
# [1] = test system: Italian ryegrass (Lolium multiflorum); assay: Test E pre-/postemergence plant response; settings: scale 0 to 100, read-out: Plant response rating, Ryegrass, Italian; for pest or weed control at 16 g/ha: 16 g ai/ha; for pest or weed control at 31 g/ha: 31 g ai/ha; for pest or weed control at 62 g/ha: 62 g ai/ha; for pest or weed control at 125 g/ha: 125 g ai/ha
# In short: (§1)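 Pre-emergence: seeds sown in silt loam soil and sprayed with test chemicals in a non-phytotoxic solvent/surfactant mix. Post-emergence: plants at 2–18 cm (1- to 4-leaf stage) in peat/vermiculite medium treated with the same formulation. Visual rating versus controls after 7–21 days, 0 (no effect) to 100 (complete control).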
# [2] = test system: green foxtail (Setaria viridis); assay: Test E pre-/postemergence plant response; settings: scale 0 to 100, read-out: Plant response rating, Foxtail, Green; for pest or weed control at 16 g/ha: 16 g ai/ha; for pest or weed control at 31 g/ha: 31 g ai/ha; for pest or weed control at 62 g/ha: 62 g ai/ha; for pest or weed control at 125 g/ha: 125 g ai/ha
# In short: as §1
# [3] = test system: Italian ryegrass (Lolium multiflorum); assay: Test F pre-/postemergence plant response; settings: Lolium multiflorum, scale 0 to 100, read-out: Plant response rating, Ryegrass, Italian; for pest or weed control at 16 g/ha: 16 g ai/ha; for pest or weed control at 31 g/ha: 31 g ai/ha; for pest or weed control at 125 g/ha: 125 g ai/ha
# In short: (§2)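 Seeds were sown in silt loam and sprayed preemergence; in parallel, plants at 2–18 cm (1- to 4-leaf) received postemergence sprays. Test chemicals were in a non-phytotoxic solvent with surfactant. After 14–21 days in the greenhouse, injury was rated visually against controls on a 0–100 scale (100 = complete control).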
# [4] = test system: field bindweed (Convolvulus arvensis); assay: Test F pre-/postemergence plant response; settings: Convolvulus arvensis, scale 0 to 100, read-out: Plant response rating, Field Bindweed
# In short: as §2
# [5] = test system: goosegrass (Eleusine indica); assay: Test F pre-/postemergence plant response; settings: Eleusine indica, pre-emergence, scale 0 to 100, read-out: Plant response rating, Goosegrass
# In short: as §2
# [6] = test system: hairy beggarticks (Bidens pilosa); assay: Test F pre-/postemergence plant response; settings: Bidens pilosa, scale 0 to 100, read-out: Plant response rating, Beggarticks
# In short: as §2
# [7] = test system: kochia (Kochia scoparia); assay: Test F pre-/postemergence plant response; settings: Bassia scoparia, scale 0 to 100, read-out: Plant response rating, Kochia; for pest or weed control at 16 g/ha: 16 g ai/ha; for pest or weed control at 31 g/ha: 31 g ai/ha; for pest or weed control at 125 g/ha: 125 g ai/ha
# In short: as §2
# [8] = test system: lambsquarters (Chenopodium album); assay: Test F pre-/postemergence plant response; settings: Chenopodium album, pre-emergence, Preemergence, scale 0 to 100, read-out: Plant response rating, Lambsquarters
# In short: as §2
# [9] = test system: nightshade (eastern black nightshade, Solanum ptycanthum); assay: Test F pre-/postemergence plant response; settings: Solanum, pre-emergence, scale 0 to 100, read-out: Plant response rating, Nightshade
# In short: as §2
# [10] = test system: velvetleaf (Abutilon theophrasti); assay: Test F pre-/postemergence plant response; settings: Abutilon theophrasti, pre-emergence, scale 0 to 100, read-out: Plant response rating, Velvetleaf
# In short: as §2
# [11] = test system: yellow nutsedge (Cyperus esculentus); assay: Test F pre-/postemergence plant response; settings: Cyperus, pre-emergence, scale 0 to 100, read-out: Plant response rating, Nutsedge, Yellow
# In short: as §2
# [12] = post-emergence, 62 g ai/ha, Postemergence
# [13] = post-emergence, 16 g ai/ha Postemergence
# [14] = post-emergence, 31 g ai/ha Postemergence
# [15] = post-emergence, 62 g ai/ha Postemergence
# [16] = post-emergence, 125 g ai/ha Postemergence
# [17] = pre-emergence, 16 g ai/ha Preemergence
# [18] = pre-emergence, 31 g ai/ha Preemergence
# [19] = pre-emergence, 62 g ai/ha Preemergence
# [20] = pre-emergence, 125 g ai/ha Preemergence
smiles,measurement,setting,value
"Fc1cccc(Oc2ncc(Br)cn2)c1-c1cc(C(F)F)no1 [Compound 145, 5-bromo-2-[2-[3-(difluoromethyl)-5-isoxazolyl]-3-fluorophenoxy]pyrimidine]",pest or weed control at 16 g/ha,"[1]; post-emergence, Postemergence",5%
same,pest or weed control at 31 g/ha,"[1]; post-emergence, Postemergence",10%
same,pest or weed control at 62 g/ha,"[1]; post-emergence, Postemergence",25%
same,pest or weed control at 125 g/ha,"[1]; post-emergence, Postemergence",40%
same,pest or weed control at 16 g/ha,"[1]; pre-emergence, Preemergence",10%
same,pest or weed control at 31 g/ha,"[1]; pre-emergence, Preemergence",20%
same,pest or weed control at 62 g/ha,"[1]; pre-emergence, Preemergence",50%
same,pest or weed control at 125 g/ha,"[1]; pre-emergence, Preemergence",70%
same,pest or weed control at 16 g/ha,"[2]; post-emergence, Postemergence",15%
same,pest or weed control at 31 g/ha,"[2]; post-emergence, Postemergence",30%
same,pest or weed control at 62 g/ha,"[2]; post-emergence, Postemergence",40%
same,pest or weed control at 125 g/ha,"[2]; post-emergence, Postemergence",98%
same,pest or weed control at 16 g/ha,"[2]; pre-emergence, Preemergence",0%
same,pest or weed control at 31 g/ha,"[2]; pre-emergence, Preemergence",45%
same,pest or weed control at 62 g/ha,"[2]; pre-emergence, Preemergence",55%
same,pest or weed control at 125 g/ha,"[2]; pre-emergence, Preemergence",100%
same,pest or weed control at 16 g/ha,"[3]; post-emergence, Postemergence",10%
same,pest or weed control at 31 g/ha,"[3]; post-emergence, Postemergence",5%
same,pest or weed control at 62 g/ha,[3]; [12],10%
same,pest or weed control at 125 g/ha,"[3]; post-emergence, Postemergence",15%
same,pest or weed control at 16 g/ha,"[3]; pre-emergence, Preemergence",25%
same,pest or weed control at 31 g/ha,"[3]; pre-emergence, Preemergence",20%
same,pest or weed control at 125 g/ha,"[3]; pre-emergence, Preemergence",90%
same,pest or weed control at 62 g/ha,"[3]; pre-emergence, Preemergence",40%
same,pest or weed control at 16 g/ha,[4]; [13],70%
same,pest or weed control at 31 g/ha,[4]; [14],75%
same,pest or weed control at 62 g/ha,[4]; [15],80%
same,pest or weed control at 125 g/ha,[4]; [16],90%
same,pest or weed control at 16 g/ha,[4]; [17],0%
same,pest or weed control at 31 g/ha,[4]; [18],50%
same,pest or weed control at 62 g/ha,[4]; [19],65%
same,pest or weed control at 125 g/ha,[4]; [20],95%
same,pest or weed control at 16 g/ha,[5]; 16 g ai/ha Preemergence,0%
same,pest or weed control at 31 g/ha,[5]; 31 g ai/ha Preemergence,70%
same,pest or weed control at 125 g/ha,[5]; 125 g ai/ha Preemergence,95%
same,pest or weed control at 62 g/ha,[5]; Preemergence,80%
same,pest or weed control at 16 g/ha,[6]; [13],55%
same,pest or weed control at 31 g/ha,[6]; [14],50%
same,pest or weed control at 62 g/ha,[6]; [15],65%
same,pest or weed control at 125 g/ha,[6]; [16],70%
same,pest or weed control at 16 g/ha,[6]; [17],0%
same,pest or weed control at 31 g/ha,[6]; [18],35%
same,pest or weed control at 62 g/ha,[6]; [19],30%
same,pest or weed control at 125 g/ha,[6]; [20],25%
same,pest or weed control at 16 g/ha,"[7]; post-emergence, Postemergence",98%
same,pest or weed control at 31 g/ha,"[7]; post-emergence, Postemergence",100%
same,pest or weed control at 62 g/ha,[7]; [12],95%
same,pest or weed control at 125 g/ha,"[7]; post-emergence, Postemergence",100%
same,pest or weed control at 16 g/ha,"[7]; pre-emergence, Preemergence",75%
same,pest or weed control at 31 g/ha,"[7]; pre-emergence, Preemergence",98%
same,pest or weed control at 125 g/ha,"[7]; pre-emergence, Preemergence",100%
same,pest or weed control at 62 g/ha,"[7]; pre-emergence, Preemergence",100%
same,pest or weed control at 16 g/ha,[8]; 16 g ai/ha,100%
same,pest or weed control at 31 g/ha,[8]; 31 g ai/ha,100%
same,pest or weed control at 125 g/ha,[8]; 125 g ai/ha,100%
same,pest or weed control at 62 g/ha,[8],100%
same,pest or weed control at 16 g/ha,[9]; 16 g ai/ha Preemergence,90%
same,pest or weed control at 31 g/ha,[9]; 31 g ai/ha Preemergence,80%
same,pest or weed control at 125 g/ha,[9]; 125 g ai/ha Preemergence,98%
same,pest or weed control at 62 g/ha,[9]; Preemergence,98%
same,pest or weed control at 16 g/ha,[10]; 16 g ai/ha Preemergence,35%
same,pest or weed control at 31 g/ha,[10]; 31 g ai/ha Preemergence,98%
same,pest or weed control at 125 g/ha,[10]; 125 g ai/ha Preemergence,100%
same,pest or weed control at 62 g/ha,[10]; Preemergence,100%
same,pest or weed control at 16 g/ha,[11]; 16 g ai/ha Preemergence,0%
same,pest or weed control at 31 g/ha,[11]; 31 g ai/ha Preemergence,0%
same,pest or weed control at 125 g/ha,[11]; 125 g ai/ha Preemergence,0%
same,pest or weed control at 62 g/ha,[11]; Preemergence,0%
